Consider 21 compounds from patent US20100137313A1 (ASTRAZENECA AB, priority 2008, published 2010).

SMILES strings stand for the structures.

The target of this experiment is S. pneumoniae Topoisomerase IV ATPase (ParE) (Streptococcus pneumoniae serotype 4, UniProt Q59961). Put plainly: S. pneumoniae Topoisomerase IV ATPase inhibition. Type of experiment: biochemical. The settings on record: values marked * are an average of two or more data points, read-out: % Inh (13 μM) of S. pneumoniae Topoisomerase IV ATPase. Summed up: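 Malachite green/ammonium molybdate phosphate detection, A650. 1.25 nM ParE, 160 μM ATP, sheared salmon sperm DNA 5 μg/ml, 20 mM Tris pH 8.0, 8.0 mM MgCl2. Controls: 2% DMSO = 0%, 20 μM EDTA = 100% inhibition; IC50 over 10 concentrations.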
Sequence of S. pneumoniae Topoisomerase IV ATPase (ParE) (Q59961 whole entry): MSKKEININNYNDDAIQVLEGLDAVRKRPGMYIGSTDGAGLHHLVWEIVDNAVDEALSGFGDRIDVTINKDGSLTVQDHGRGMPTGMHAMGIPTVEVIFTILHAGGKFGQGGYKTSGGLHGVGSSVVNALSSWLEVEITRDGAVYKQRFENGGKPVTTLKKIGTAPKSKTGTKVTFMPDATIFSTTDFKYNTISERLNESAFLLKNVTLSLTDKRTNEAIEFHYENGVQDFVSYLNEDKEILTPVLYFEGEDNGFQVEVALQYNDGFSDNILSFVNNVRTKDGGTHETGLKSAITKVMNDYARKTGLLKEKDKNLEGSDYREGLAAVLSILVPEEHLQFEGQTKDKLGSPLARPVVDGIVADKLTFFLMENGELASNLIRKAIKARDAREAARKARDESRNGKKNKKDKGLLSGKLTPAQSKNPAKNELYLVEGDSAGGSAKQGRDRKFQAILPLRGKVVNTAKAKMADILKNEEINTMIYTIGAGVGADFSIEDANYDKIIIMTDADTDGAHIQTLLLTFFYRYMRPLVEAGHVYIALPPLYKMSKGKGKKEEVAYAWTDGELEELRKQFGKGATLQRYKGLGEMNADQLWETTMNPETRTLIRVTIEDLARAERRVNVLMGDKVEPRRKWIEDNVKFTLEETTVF
`O=C(O)/C=C/c1cccc(-c2cnc(Nc3ccc(F)c(Cl)c3)nc2-n2cc(-c3ccncn3)cn2)c1` [Example 568, (2E)-3-(3-{2-[(3-chloro-4-fluorophenyl)amino]-4-[4-(pyrimidin-4-yl)-1H-pyrazol-1-yl]pyrimidin-5-yl}phenyl)prop-2-enoic acid]: the inhibition at 13 µM stood at 100%. The value for `COc1ccccc1-c1cnc(Nc2ccc(F)c(Cl)c2)nc1NCCCN(C)C` [Example 28, N^2-(3-chloro-4-fluorophenyl)-N^4-[3-(dimethylamino)propyl]-5-(2-methoxyphenyl)-pyrimidin-2,4-diamine] was 62.6%. To `CN(C)CCn1cc(C(=O)O)c(=O)c2cc(-c3cnc(Nc4ccc(F)c(Cl)c4)nc3-n3ccc(C(F)(F)F)n3)ccc21` [Example 1070, 6-(2-(3-Chloro-4-fluorophenylamino)-4-(3-(trifluoromethyl)-1H-pyrazol-1-yl)pyrimidin-5-yl)-1-(2-(dimethylamino)ethyl)-4-oxo-1,4-dihydroquinoline-3-carboxylic acid] belongs 93%; to `COc1cc(Nc2ncc(-c3cccc(/C=C/C(=O)O)c3)c(N[C@@H]3CCOC3)n2)cc(OC)c1` [Example 357, (R,E)-3-(3-(2-(3,5-dimethoxyphenylamino)-4-(tetrahydrofuran-3-ylamino)pyrimidin-5-yl)phenyl)acrylic acid], 85.3%; to `Nc1ncc(-c2cnc(Nc3ccc(F)c(Cl)c3)nc2-n2ccc(C(F)(F)F)n2)cc1C(=O)O` [Example 1073, 2-Amino-5-(2-(3-chloro-4-fluorophenylamino)-4-(3-(trifluoromethyl)-1H-pyrazol-1-yl)pyrimidin-5-yl)nicotinic acid], 99%. To `COc1ncc(-c2cnc(Nc3cccc(C(C)=O)c3)nc2-n2nc(C(F)(F)F)cc2C)cc1C(=O)O` [Example 721, 5-{2-[(3-acetylphenyl)amino]-4-[5-methyl-3-(trifluoromethyl)-1H-pyrazol-1-yl]pyrimidin-5-yl}-2-methoxypyridine-3-carboxylic acid] belongs 100%; to `COc1c(F)cc(Nc2ncc(-c3cccc(/C=C/C(=O)O)c3)c(N3CCOCC3)n2)cc1F` [Example 403, (E)-3-{3-[2-(3,5-Difluoro-4-methoxy-phenylamino)-4-morpholin-4-yl-pyrimidin-5-yl]-phenyl}-acrylic acid], 30%.

For `CC(=O)N1CCN(c2nc(Nc3ccc(F)c(Cl)c3)ncc2-c2cncc(C(=O)O)c2)CC1` [Example 276, 5-(4-(4-acetylpiperazin-1-yl)-2-(3-chloro-4-fluorophenylamino)-pyrimidin-5-yl)nicotinic acid], the inhibition at 13 µM was determined as 80.3%.

In the case of `O=C(O)c1cc(-c2cnc(Nc3ccc(F)c(Cl)c3)nc2N2CCOCC2)cs1` [Example 483, 4-{2-[(3-chloro-4-fluorophenyl)amino]-4-(morpholin-4-yl)pyrimidin-5-yl}thiophene-2-carboxylic acid], the inhibition at 13 µM came to 66%. To `CCOC(=O)c1cncc(-c2cnc(Nc3ccc(F)c(Cl)c3)nc2N[C@H]2CC[C@H](O)CC2)c1` [Example 128, ethyl 5-[2-[(3-chloro-4-fluorophenyl)amino]-4-[(trans-4-hydroxycyclohexyl)amino]pyrimidin-5-yl]pyridine-3-carboxylate] belongs -16.2%.

For `CCS(=O)(=O)NC(=O)c1cc(-c2cnc(Nc3ccc(F)c(Cl)c3)nc2-n2nc(C(F)(F)F)cc2C)cnc1OC` [Example 1017, 5-(2-(3-Chloro-4-fluorophenylamino)-4-(5-methyl-3-(trifluoromethyl)-1H-pyrazol-1-yl)pyrimidin-5-yl)-N-(ethylsulfonyl)-2-methoxynicotinamide], the inhibition at 13 µM worked out at 90%. To `COc1cc(Nc2ncc(-c3cnc(OC)c(C(=O)NS(=O)(=O)c4ccc(CNC(C)=O)cc4)c3)c(-n3nc(C(F)(F)F)cc3C)n2)cc(OC)c1` [Example 846, N-({4-[(acetylamino)methyl]phenyl}sulfonyl)-5-{2-[(3,5-dimethoxyphenyl)amino]-4-[5-methyl-3-(trifluoromethyl)-1H-pyrazol-1-yl]pyrimidin-5-yl}-2-methoxypyridine-3-carboxamide] belongs 97%. To `COCCCNc1nc(Nc2ccc(F)c(Cl)c2)ncc1-c1nc(-c2nccs2)cs1` [Example 502, 5-(2,4′-bi-1,3-thiazol-2′-yl)-N^2-(3-chloro-4-fluorophenyl)-N^4-(3-methoxypropyl)pyrimidine-2,4-diamine] belongs 10%. Take `O=C(O)c1cncc(-c2cnc(Nc3ccc(F)c(Cl)c3)nc2N2CCC(N3CCOCC3)CC2)c1` [Example 246, 5-[2-[(3-chloro-4-fluorophenyl)amino]-4-(4-morpholin-4-ylpiperidin-1-yl)pyrimidin-5-yl]pyridine-3-carboxylic acid]: the inhibition at 13 µM was 74.9%. The value for `COC(=O)c1cc(-c2cnc(Nc3ccc(F)c(Cl)c3)nc2-n2nc(C(F)(F)F)cc2C)cnc1OC` [Example 1008, Methyl 5-(2-(3-chloro-4-fluorophenylamino)-4-(5-methyl-3-(trifluoromethyl)-1H-pyrazol-1-yl)pyrimidin-5-yl)-2-methoxynicotinate] was 83%; that for `COc1ncc(-c2cnc(Nc3cccc(C(N)=O)c3)nc2-n2nc(C(F)(F)F)cc2C)cc1C(=O)O` [Example 723, 5-{2-[(3-carbamoylphenyl)amino]-4-[5-methyl-3-(trifluoromethyl)-1H-pyrazol-1-yl]pyrimidin-5-yl}-2-methoxypyridine-3-carboxylic acid] was 94%.

As for `COc1cc(Nc2ncc(-c3cncc(C(=O)NS(C)(=O)=O)c3)c(-n3nc(C(F)(F)F)cc3C)n2)cc(OC)c1` [Example 687, 5-{2-[(3,5-dimethoxyphenyl)amino]-4-[5-methyl-3-(trifluoromethyl)-1H-pyrazol-1-yl]pyrimidin-5-yl}-N-(methylsulfonyl)pyridine-3-carboxamide], the inhibition at 13 µM is 100%. The value for `COc1ncc(-c2cnc(Nc3ccc(F)c(Cl)c3)nc2-n2nc(C(F)(F)F)cc2C)cc1C(N)=O` [Example 1105, 5-(2-(3-chloro-4-fluorophenylamino)-4-(5-methyl-3-(trifluoromethyl)-1H-pyrazol-1-yl)pyrimidin-5-yl)-2-methoxynicotinamide] was 82%. To `CCOC(=O)CNc1nc(Nc2ccc(F)c(Cl)c2)ncc1-c1cncc(C(=O)OCC)c1` [Example 111, ethyl 5-[2-[(3-chloro-4-fluorophenyl)amino]-4-[(2-ethoxy-2-oxoethyl)amino]pyrimidin-5-yl]pyridine-3-carboxylate] belongs -13.9%; to `Cc1cc(C(F)(F)F)nn1-c1nc(Nc2cccc(S(C)(=O)=O)c2)ncc1-c1cncc(C(=O)O)c1` [Example 644, 5-(2-{[3-(methylsulfonyl)phenyl]amino}-4-[5-methyl-3-(trifluoromethyl)-1H-pyrazol-1-yl]pyrimidin-5-yl)pyridine-3-carboxylic acid], 84%; to `COc1cc(Nc2ncc(-c3cccc(/C=C/C(=O)O)c3)c(-n3nc(C(F)(F)F)cc3C)n2)cc(S(C)(=O)=O)c1` [Example 653], 86%.
